Several values for one entry are separate records, joined by “and”; a condition that tells them apart may be missing. Equal entries are not always repeated.
Assays:
[1] = test system: human breast MCF-7 cancer cell line; test: In vitro cytotoxic screening (MTT assay), MCF-7; assay type: cell-based; conditions: for Percentage cytotoxicity on MCF-7: average ± standard deviation
Protocol: (§1) Using human breast MCF-7, colorectal HCT-116, and prostate PC-3 cancer cell lines, preliminary antiproliferative effectiveness of cyclopenta[4,5]thieno[2,3-d][1,2,4]triazolo[1,5-a]pyrimidin-9(6H)-ones 4–16 was established in vitro through MTT assay at different concentrations (100, 50, 25 and 12.5 μM) (Figure 2).
(§2) The cell lines were obtained from Karolinska Center, Department of Oncology and Pathology, Karolinska Institute and Hospital, Stockholm, Sweden. as follows: human breast MCF-7, colorectal HCT-116 and prostate PC-3 cancer cell lines and human skin normal BJ-1 cell line. Exponentially, cells were cultured at a concentration of 10^4 cells/well for 24 h, afterwards fresh medium containing different concentrations of the tested samples was added. Serial two-fold dilution of the tested samples were added using a multichannel pipette. Moreover, all cells were cultivated at 37 °C, 5% CO2 and 95% humidity. Also, incubation of control cells occurred at 37 °C. However, after incubation for 24 h different concentrations of samples (100, 50, 25 and 12.5 µM) were added and the incubation was continued for 48 h, then crystal violet solution 1% was added to each well for 0.5 h to examine the presence of viable cells. After rinsing the wells using water until stain free, 30% glacial acetic acid was added to all wells with shaking the plates on a Microplate reader (TECAN, Inc.) to measure the absorbance at a wavelength of 490 nm. The cytotoxicity was estimated by IC50 in μM, which is the concentration that inhibits 50% of growth of cancer cells. […]
(§3) 1.1. In vitro cytotoxic screening
(§4) The cell lines were obtained from Karolinska Center, Department of Oncology and Pathology, Karolinska Institute and Hospital, Stockholm, Sweden. as follows: human breast MCF-7, colorectal HCT-116 and prostate PC-3 cancer cell lines and human skin normal BJ-1 cell line. Exponentially, cells were placed in 10^4 cells/ well for 24 h, and then add fresh medium which containing different concentration of the tested sample. Serial two-fold dilution of the tested sample were added using a multichannel pipette. Moreover, all cells were cultivated at 37 °C, 5% CO2 and 95% humidity. Also, incubation of control cells occurred at 37 °C. However, after incubation for 24 h different concentrations of sample (100, 50, 25 and 12.5 µM) were added and continued the incubation for 48 h, then, add the crystal violet solution 1% to each well for 0.5 h to examine viable cells. Rinse the wells using water until no stain. After that, add 30% glacial acetic acid to all wells with shaking plates on Microplate reader (TECAN, Inc.) to measure the absorbance, using a test wavelength of 490 nm. Besides, compare the treated samples with the control cell. The cytotoxicity was estimated by IC50 in (μ M), the concentration that inhibits 50% of growth of cancer cell. […]
(§5) The molecular docking simulation of the promising in vitro screened cyclopenta[4,5]thieno[2,3-d][1,2,4]triazolo[1,5-a]pyrimidin-9(6H)-ones 10b and 10e against EGFR and PI3K was done using the Molecular Operating Environment software (MOE-Dock) version 2014.0901. The co-crystallized structures of EGFR and PI3K kinases complexed with their native ligands, erlotinib and quinolone LXX, were downloaded from the protein data bank (PDB codes: 1M17 and 3L54, respectively). All minimizations were performed using MOE until an RMSD gradient of 0.05 kcal∙mol−1Å−1 with MMFF94x force field and the partial charges were automatically calculated. Preparation of the enzyme structures was done for molecular docking using Protonate 3D protocol with the default options in MOE. London dG scoring function and Triangle Matcher placement method were used in the docking protocol. Initially, the original ligands were re-docked into the active binding site of EGFR and PI3K kinases to assess the root-mean-square deviation values. Then, the docking studies of the newly targeted […]

[2] = test system: human prostate PC-3 cancer cell line; test: In vitro cytotoxic screening (MTT assay), PC-3; assay type: cell-based; conditions: average ± standard deviation
Protocol: as §1, §2, §3, §4, §5

[3] = test system: human colorectal HCT-116 cancer cell line; test: In vitro cytotoxic screening (MTT assay), HCT-116; assay type: cell-based; conditions: average ± standard deviation
Protocol: as §1, §2, §3, §4, §5

melting point | SMILES | Percentage cytotoxicity on MCF-7 ([1]; 12.5 µM) | Percentage cytotoxicity on MCF-7 ([1]; 25 µM) | Percentage cytotoxicity on MCF-7 ([1]; 50 µM) | Percentage cytotoxicity on MCF-7 ([1]; 100 µM) | Percentage cytotoxicity on PC-3 ([2]; 12.5 µM) | Percentage cytotoxicity on PC-3 ([2]; 25 µM) | Percentage cytotoxicity on PC-3 ([2]; 50 µM) | Percentage cytotoxicity on PC-3 ([2]; 100 µM) | Percentage cytotoxicity on HCT-116 ([3]; 12.5 µM) | Percentage cytotoxicity on HCT-116 ([3]; 25 µM) | Percentage cytotoxicity on HCT-116 ([3]; 50 µM) | Percentage cytotoxicity on HCT-116 ([3]; 100 µM) | IC50 ([1]; Homo sapiens, MCF7, MCF-7, 48 h incubation, mean of three values, read-out: IC50 (Mean ± SD) MCF-7)
> 300 °C | O=c1c2c3c(sc2nc2nc([C@H](O)[C@@H](O)[C@@H](O)[C@H](O)CO)[nH]n12)CCC3 [Compound 11b, 2-((1S,2R,3S,4R)-1,2,3,4,5-pentahydroxypentyl)-1,6,7,8-tetrahydro-9H-cyclopenta[4,5]thieno[2,3-d][1,2,4]triazolo[1,5-a]pyrimidin-9-one] | 0.0±0.005% | 0.0±0.005% | 22.1±6.9% | 39.4±8.3% | 0.0±0.005% | 0.0±0.005% | 0.0±0.005% | 12.7±3.8% | 18.2±2.3% | 16.1±1.6% | 21.8±1.9% | 18.7±7.6% | –
220 to 222 °C | O=c1c2c3c(sc2nc2[nH]c(-c4ccc(Cl)cc4)nn12)CCC3 [Compound 10a, 2-(4-Chlorophenyl)-7,8-dihydro-3H-cyclopenta[4,5]thieno[2,3-d][1,2,4]triazolo[1,5-a]pyrimidin-9(6H)-one] | 16.5±9.5% | 33.3±0.8% | 44.4±11.2% | 61.4±4.7% | 20.7±3.9% | 30.7±0.5% | 35.9±0.8% | 40.9±4.1% | 14.4±2.3% | 17.8±1.7% | 17.9±1.7% | 20.3±2.1% | 60.6 ± 0.45 µM
> 300 °C | O=c1c2c3c(sc2nc2nc([C@H](O)[C@@H](O)[C@H](O)[C@H](O)CO)[nH]n12)CCC3 [Compound 11a, 2-((1S,2R,3R,4R)-1,2,3,4,5-pentahydroxypentyl)-1,6,7,8-tetrahydro-9H-cyclopenta[4,5]thieno[2,3-d][1,2,4]triazolo[1,5-a]pyrimidin-9-one] | 0.0±0.005% | 16.2±1.6% | 41.3±4.3% and 36.6±6.3% | 36.6±6.3% and 41.3±4.3% | 9.9±2.5% | 21.9±1.0% | 7.3±0.3% | 33.9±3.5% | 12.94±4.6% | 12.94±4.6% | 25.8±1.6% | 32.4±3.9% | –
> 300 °C | O=c1c2c3c(sc2nc2nc([C@@H](O)[C@H](O)[C@H](O)CO)[nH]n12)CCC3 [Compound 11d, 2-((1R,2S,3R)-1,2,3,4-tetrahydroxybutyl)-1,6,7,8-tetrahydro-9H-cyclopenta[4,5]thieno[2,3-d][1,2,4]triazolo[1,5-a]pyrimidin-9-one] | 0.0±0.005% | 29.2±2.9% | 47.9±2.2% | 50.5±0.2% | 5.4±6.8% | 6.8±0.3% | 9.7±0.5% | 25.3±3.8% | 0.0±0.005% | 0.0±0.005% | 0.0±0.005% | 10.0±3.4% | –
> 300 °C | CC(=O)OC[C@@H](OC(C)=O)[C@H](OC(C)=O)[C@H](OC(C)=O)[C@@H](OC(C)=O)c1nc2nc3sc4c(c3c(=O)n2[nH]1)CCC4 [Compound 12b, (1S,2R,3S,4R)-1-(9-oxo-1,7,8,9-tetrahydro-6H-cyclopenta[4,5]thieno[2,3-d][1,2,4]triazolo[1,5-a]pyrimidin-2-yl)pentane-1,2,3,4,5-pentayl pentaacetate] | 0.0±0.005% | 5.5±0.6% | 20.8±2.1% | 30.1±7.5% | 1.5±2.3% | 4.8±1.1% | 7.3±0.9% | 20.6±3.3% | 0.0±0.005% | 0.0±0.005% | 0.0±0.005% | 13.3±3.1% | –

The remaining lines, values behind:

SMILES | melting point | Percentage cytotoxicity on MCF-7 ([1]; 12.5 µM) | Percentage cytotoxicity on MCF-7 ([1]; 25 µM) | Percentage cytotoxicity on MCF-7 ([1]; 50 µM) | Percentage cytotoxicity on MCF-7 ([1]; 100 µM) | Percentage cytotoxicity on PC-3 ([2]; 12.5 µM) | Percentage cytotoxicity on PC-3 ([2]; 25 µM) | Percentage cytotoxicity on PC-3 ([2]; 50 µM) | Percentage cytotoxicity on PC-3 ([2]; 100 µM) | Percentage cytotoxicity on HCT-116 ([3]; 12.5 µM) | Percentage cytotoxicity on HCT-116 ([3]; 25 µM) | Percentage cytotoxicity on HCT-116 ([3]; 50 µM) | Percentage cytotoxicity on HCT-116 ([3]; 100 µM) | IC50 ([1]; Homo sapiens, MCF7, MCF-7, 48 h incubation, mean of three values, read-out: IC50 (Mean ± SD) MCF-7)
COc1ccc(-c2nn3c(=O)c4c5c(sc4nc3n2[C@@H]2O[C@H](COC(C)=O)[C@@H](OC(C)=O)[C@H](OC(C)=O)[C@H]2OC(C)=O)CCC5)cc1 [Compound 16, 2-(4-Methoxyphenyl)-3-(2,3,4,6-tetra-O-acetyl-β-D-glocopyranosyl)-7,8-dihydro-3H-cyclopenta[4,5]thieno[2,3-d][1,2,4]triazolo[1,5-a]pyrimidin-9(6H)-one] | > 300 °C | 0.0±0.005% | 0.0±0.005% | 0.0±0.005% | 29.5±1.6% | 0.0±0.005% | 0.0±0.005% | 0.0±0.005% | 14.5±1.6% | 0.0±0.005% | 0.0±0.005% | 0.0±0.005% | 1.0±0.5% | –
CC(=O)OC[C@H]1O[C@@H](n2cnn3c(=O)c4c5c(sc4nc23)CCC5)[C@H](OC(C)=O)[C@@H](OC(C)=O)[C@@H]1OC(C)=O [Compound 14, 3-(2,3,4,6-Tetra-O-acetyl-β-d-glocopyranosyl)-7,8-dihydro-3H-cyclopenta-[4,5]thieno-[2,3-d][1,2,4]triazolo[1,5-a]pyrimidin-9(6H)-one] | > 300 °C | 0.0±0.005% | 0.0±0.005% | 0.0±0.005% | 29.2±0.8% | 0.0±0.005% | 0.0±0.005% | 0.0±0.005% | 9.5±1.9% | 0.0±0.005% | 0.0±0.005% | 0.0±0.005% | 15.7±2.9% | –
CC(=O)C/C(C)=N/n1c(N[C@@H]2O[C@H](COC(C)=O)[C@@H](OC(C)=O)[C@H](OC(C)=O)[C@H]2OC(C)=O)nc2sc3c(c2c1=O)CCC3 [Compound 15, (E)-3-((4-Oxopentan-2-ylidene)amino)-2-((2,3,4,6-tetra-O-acetyl-β-D-glocopyranosyl)amino)-6,7-dihydro-3H-cyclopenta[4,5]thieno[2,3-d]pyrimidin-4(5H)-one] | > 300 °C | 0.0±0.005% | 0.0±0.005% | 0.0±0.005% | 19.7±3.7% | 0.0±0.005% | 0.0±0.005% | 0.0±0.005% | 5.6±1.2% | 0.0±0.005% | 0.0±0.005% | 0.0±0.005% | 3.0±1.2% | –
